Results as given in patent US5866576A, “Epoxide-containing compounds” (Cell Therapeutics, Inc., priority 1997, dated 1999).

Columns and labels:
thymocytes = assay: murine thymocyte proliferation assay co-stimulated by ConA and IL-2 (FIGS. 7A-7E); assay type: cell-based, Balb/C mice; conditions: Mus musculus
From the text: This example illustrates dose response curves used to generate 50% inhibition concentrations (IC50) for inventive compounds nos. 1410, 1439, 1541, 1553, 1553S, 1560, 1565, 2548R, 2548S and 2562 in a murine thymocyte proliferation assay, co-stimulated by Concanavalin A (ConA) and interleukin-2 alpha (IL-2). ConA, used to activate the T-cell receptor (TCR), along with IL-2 co-stimulation, induces T-cell proliferation and differentiation. Thymuses, obtained from normal, female Balb/C mice, were dissociated and plated into 96-well plates at a density of 2×10^5 cells/well. ConA (0.25 mg/ml) and IL-2 (15 U/ml) were added to the wells. The cells were incubated for 4 days at 37° C. On day 4, the cells were pulsed with tritiated thymidine and incubated for an additional 4 hours. The amount of tritiated thymidine incorporated by the harvested cells was determined in a liquid scintillation counter. Doses of inventive compounds (shown in FIGS. 7A-7E) were added two hours prior to ConA and IL-2 activation. Background counts were less than 200 cpm. Results obtained, illustrate the ability of the inventive compounds to inhibit thymocyte proliferation and activation. In FIG. 7A, inventive compounds nos. […] FIG. 7B presents additional data for compound no. 1410 and 1553S in this assay. […] FIG. 7C reports assay results for inventive compounds nos. 1439, 1541, 1560 and 1565. […] FIGS. 7D and 7E illustrate assay results for inventive compounds nos. 1541, 1553, 1560 and 1565 (FIG. 7D) and 2562, […] (FIG. 7E). As is true of other inventive compounds tested, all these compounds represented in FIGS. 7D and 7E inhibit thymocyte proliferation. […] 1541, 1553, 1560, 1565, 2562, 2548R and 2548S, respectively.

Balb/3T3 cells = assay: PDGF-stimulated Balb/3T3 cell proliferation; assay type: cell-based; conditions: FIGS. 8A (1409), 8B (1560); PDGF/BB
Procedure: Balb/3T3 cells respond vigorously to PDGF stimulation, and are useful in vitro models for further study of PDGF-induced proliferation. Disregulated PDGF-proliferative response has been linked to a variety of diseases, including, e.g., restenosis, atherosclerosis, fibrosis, and tumor cell angiogenesis.
Balb/3T3 cells were maintained in exponential growth. The cells were removed from a flask with EDTA and plated into 96 well plates at 3000 cells/well. After 48 hours, the media was removed, the cells washed once with PBS and serum free media and the cultures allowed to rest for a 24 hour period. Inventive compounds were added to the wells containing media and Balb/3T3 cells one hour prior to incubation with PDGF/BB, added at constant 10 μM concentrations along with 1 μ Ci 3-H-thymidine dye. Cells were subsequently incubated for 18-24 hours, harvested, and incorporated thymidine assessed on a Packard Topcount to determine degree of cell proliferation. Data obtained in this assay was used to determine experimental 50% inhibition concentrations for the inventive compounds tested.

SMILES: Cn1cnc2c1c(=O)n(CCCCCCCC1CO1)c(=O)n2C (stereo not drawn) [Compound 1560, 1-(8,9-Oxidononyl)-3,7-dimethylxanthine]
- IC50 (thymocytes; FIG. 7C): 22 µM
- IC50 (thymocytes; FIGS. 7D and 7E): 14 µM
- inhibition of Balb/3T3 proliferation (Balb/3T3 cells): inhibit Balb/3T3 proliferation
